PMC11300463, “Structure basis for sugar specificity of gustatory receptors in insects” (Cell Discovery, 2024)

Assays:
Assay type in all cases: cell-based
[1] = molecular target: T1, DmGr64a (Drosophila melanogaster, UniProt P83293); test: calcium imaging, HEK293 cells; details: activation
T1 construct: gene Gr64a; expressed in HEK293 cells for function; purified homotetramer for cryo-EM; residues Y234, W260, F333, L338, L339, F342, E399, F403, I420, V438, L439, Q441
T1 sequence (P83293 1-456): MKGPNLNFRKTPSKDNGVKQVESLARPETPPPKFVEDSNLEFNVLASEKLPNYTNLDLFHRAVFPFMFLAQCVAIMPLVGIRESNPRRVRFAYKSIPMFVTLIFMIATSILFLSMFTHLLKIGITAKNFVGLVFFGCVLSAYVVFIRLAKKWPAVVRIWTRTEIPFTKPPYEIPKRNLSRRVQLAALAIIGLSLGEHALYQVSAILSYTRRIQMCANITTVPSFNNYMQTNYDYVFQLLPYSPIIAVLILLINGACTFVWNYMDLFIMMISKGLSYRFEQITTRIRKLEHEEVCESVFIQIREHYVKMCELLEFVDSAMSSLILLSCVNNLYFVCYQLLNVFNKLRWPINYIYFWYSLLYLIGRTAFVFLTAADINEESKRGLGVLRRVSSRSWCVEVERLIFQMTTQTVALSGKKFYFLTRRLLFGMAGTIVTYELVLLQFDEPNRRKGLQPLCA

[2] = molecular target: T1, DmGr64a; test: calcium imaging, HEK293 cells
[3] = molecular target: T2, DmoGr43a (Drosophila mojavensis, UniProt B4KNE2); test: electrophysiology, HEK293 cells; details: activation; also calcium imaging; cryo-EM structure of complex
T2 construct: gene Dmoj\GI20824; expressed in HEK293 cells for function; purified homotetramer for cryo-EM; printed residues R70, Y312, F313, F315, L386, I418, L419, I420, F422
T2 sequence (B4KNE2 1-427): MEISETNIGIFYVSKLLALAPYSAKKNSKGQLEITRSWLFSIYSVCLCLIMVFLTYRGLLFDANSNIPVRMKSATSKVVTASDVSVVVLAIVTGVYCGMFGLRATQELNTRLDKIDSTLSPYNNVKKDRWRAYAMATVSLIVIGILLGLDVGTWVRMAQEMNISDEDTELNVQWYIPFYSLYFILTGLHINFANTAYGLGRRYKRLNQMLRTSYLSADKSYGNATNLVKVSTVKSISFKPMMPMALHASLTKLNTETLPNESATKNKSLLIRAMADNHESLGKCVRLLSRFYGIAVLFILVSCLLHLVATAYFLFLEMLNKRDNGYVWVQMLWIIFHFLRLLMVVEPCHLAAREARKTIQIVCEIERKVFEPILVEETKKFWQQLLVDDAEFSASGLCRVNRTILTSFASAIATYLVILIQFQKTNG

SMILES	calcium imaging, HEK293 cells [1]	EC50 [2]	EC50 [3]
OC[C@H]1O[C@H](O[C@H]2[C@H](O)[C@@H](O)C(O)O[C@@H]2CO)[C@H](O)[C@@H](O)[C@@H]1O (some centres unmarked) [maltose]	several sugars including fructose, trehalose, sucrose and maltose were able to activate DmGr64a		
OC[C@H]1O[C@@](CO)(O[C@H]2O[C@H](CO)[C@@H](O)[C@H](O)[C@H]2O)[C@@H](O)[C@@H]1O [sucrose]		~1.77 mM	
OC[C@H]1O[C@H](O[C@H]2O[C@H](CO)[C@@H](O)[C@H](O)[C@H]2O)[C@H](O)[C@@H](O)[C@@H]1O [trehalose]	several sugars including fructose, trehalose, sucrose and maltose were able to activate DmGr64a		
OCC1(O)OC[C@@H](O)[C@@H](O)[C@@H]1O (some centres unmarked) [fructose]	several sugars including fructose, trehalose, sucrose and maltose were able to activate DmGr64a		43 ± 4.69 mM
